{"source": "patent US7790738B2", "about": "“Methods of treating and preventing AIDS using of COX-2 inhibitors” (Lauras AS, priority 2000, dated 2010)", "key": {"COX-2 [1]": {"molecular_target": "T1, COX-2 (Homo sapiens, UniProt P35354)", "T1 sequence (P35354 18-604)": "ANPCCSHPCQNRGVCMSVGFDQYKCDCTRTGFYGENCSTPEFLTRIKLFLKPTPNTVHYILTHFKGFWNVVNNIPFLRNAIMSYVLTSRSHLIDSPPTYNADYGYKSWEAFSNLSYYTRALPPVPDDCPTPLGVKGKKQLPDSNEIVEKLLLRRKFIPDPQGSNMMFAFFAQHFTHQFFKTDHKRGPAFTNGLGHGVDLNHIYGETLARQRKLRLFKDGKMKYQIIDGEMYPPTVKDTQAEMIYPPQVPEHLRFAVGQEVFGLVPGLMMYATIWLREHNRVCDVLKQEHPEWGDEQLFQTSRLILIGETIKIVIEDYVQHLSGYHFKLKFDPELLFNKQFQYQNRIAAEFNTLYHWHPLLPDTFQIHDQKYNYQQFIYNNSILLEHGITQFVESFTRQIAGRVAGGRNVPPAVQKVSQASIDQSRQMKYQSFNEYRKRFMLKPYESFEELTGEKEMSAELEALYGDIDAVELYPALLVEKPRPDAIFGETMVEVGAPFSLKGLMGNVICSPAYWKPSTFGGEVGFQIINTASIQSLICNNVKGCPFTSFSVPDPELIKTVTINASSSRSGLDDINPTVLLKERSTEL", "settings": "cited from earlier work"}, "MAIDS mice [2]": {"tested_on": "MAIDS mice", "assay": "in vivo treatment of MAIDS mice, anti-CD3 induced T cell proliferation assessed in lymph node cells", "set-up": "species or system mouse", "settings": "for increase of T cell responses to anti-CD3 versus untreated mice: intraperitoneal in intralipid, 18 to 20 days, rofecoxib 3, celecoxib 20 mg/kg/day", "method": "Subsequently, T cell proliferative responses were assessed in vitro in a mixed population of unsorted lymph node mononuclear cells from treated and untreated animals by [^3H]-thymidine incorporation in the absence (columns A) and presence of Rp-8-Br-cAMPS (0.5 or 1.0 mM, columns B and C, respectively). T cell activation was accomplished in all samples by cross-ligation of anti-CD3 (mAb 2C11; 4 μg/ml). Control represents T cell proliferation in uninfected mice. Mean values from triplicate determinations are shown. Cells were cultured for 72 h during which [^3H]-thymidine was included for the last 4 hours;\nSubsequently, T cell proliferative responses were assessed in vitro as described for FIG. 16 but without Rp-Br-cAMPs. Control represents T cell proliferation in uninfected mice. Mean values from triplicate determinations are shown (black circles) along with 25 to 75% percentile (boxed areas) and median (line in box). Bars represent range; and\nMean values±standard error of the mean (s.e.m.) from each group are shown. […] Statistics were analysed by Mann-Whitney U test for comparison of two groups of animals and with Wilcoxon Matched Pairs Test for comparison of the same group with two different treatments.\nMAIDS mice normally develop an immunoproliferation syndrome with enlarged lymph nodes and spleen.\nParenteral administration was accomplished by intraperitoneally injecting Cox-2 inhibitors formulated in intralipid."}, "COX-1": {"molecular_target": "COX-1 (Cavia porcellus, UniProt H0V9X9)", "sequence (H0V9X9 entry or part of it)": "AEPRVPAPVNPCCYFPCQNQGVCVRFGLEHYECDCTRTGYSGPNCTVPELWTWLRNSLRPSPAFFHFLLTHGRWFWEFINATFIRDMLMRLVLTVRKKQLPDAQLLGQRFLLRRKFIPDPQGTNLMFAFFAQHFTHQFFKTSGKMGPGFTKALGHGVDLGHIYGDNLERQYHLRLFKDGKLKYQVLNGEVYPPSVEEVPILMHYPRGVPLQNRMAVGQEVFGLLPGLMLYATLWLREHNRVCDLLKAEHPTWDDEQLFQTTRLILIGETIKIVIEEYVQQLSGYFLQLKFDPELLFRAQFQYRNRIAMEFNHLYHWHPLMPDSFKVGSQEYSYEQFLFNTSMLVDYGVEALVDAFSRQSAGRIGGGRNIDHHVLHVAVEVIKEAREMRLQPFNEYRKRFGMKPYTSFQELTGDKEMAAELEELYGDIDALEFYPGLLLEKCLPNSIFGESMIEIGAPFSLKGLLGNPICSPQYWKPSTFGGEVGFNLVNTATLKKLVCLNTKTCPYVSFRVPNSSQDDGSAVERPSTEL", "settings": "read-out: COX-1 IC50; guinea pig macrophage model; Engelhart et al. 1995; cited from earlier work"}, "[3]": {"tested_on": "lymph node mononuclear cells from MAIDS and control mice", "assay": "anti-CD3 induced T cell proliferation in mixed unsorted lymph node cells, compound added in vitro", "assay_type": "cell-based, mouse", "method": "T cell activation was accomplished by cross-ligation of anti-CD3 (mAb 2C11; 4 μg/ml). […] Cells were cultured for 72 h during which [^3H] -thymidine was included for the last 4 h;\nT cell activation was accomplished by cross-ligation of anti-CD3 (mAb 2C11; 4 μg/ml). […] Cells were cultured for 72 h during which [^3H ]-thymidine was included for the last 4 h;\nThe optimal concentration of antibody was titrated carefully in the initial setup and parallel experiments at several different dilutions of antibody was always performed. Proliferation was analyzed by incubating cells for 72 hours during which [^3H]-thymidine (0.4 μCi) was included for the last 4 hours and collected with a cell harvester (Skatron, Sterling, Va., USA) onto glass fiber filters. Incorporated precursor was counted in a scintillation analyzer (Tri-Carb, Packard, Meriden, Conn., USA). cAMP analogs, when used, were added 30 min prior to activation by addition of anti-CD3 antibodies."}, "MAIDS mice [4]": {"tested_on": "MAIDS mice", "assay": "in vivo treatment of MAIDS mice, lymphoproliferation (spleen and lymph node weight)", "set-up": "species or system mouse", "settings": "MAIDS mice 17 weeks post-infection, per os 7 days, 3 mg/kg/day"}, "COX-2 [5]": {"molecular_target": "T2, COX-2 (Cavia porcellus, UniProt P70682)", "T2 construct": "NSAID's in guinea pig macrophage model; endogenous in cells; host or cells: guinea pig macrophages", "T2 sequence (P70682 18-604)": "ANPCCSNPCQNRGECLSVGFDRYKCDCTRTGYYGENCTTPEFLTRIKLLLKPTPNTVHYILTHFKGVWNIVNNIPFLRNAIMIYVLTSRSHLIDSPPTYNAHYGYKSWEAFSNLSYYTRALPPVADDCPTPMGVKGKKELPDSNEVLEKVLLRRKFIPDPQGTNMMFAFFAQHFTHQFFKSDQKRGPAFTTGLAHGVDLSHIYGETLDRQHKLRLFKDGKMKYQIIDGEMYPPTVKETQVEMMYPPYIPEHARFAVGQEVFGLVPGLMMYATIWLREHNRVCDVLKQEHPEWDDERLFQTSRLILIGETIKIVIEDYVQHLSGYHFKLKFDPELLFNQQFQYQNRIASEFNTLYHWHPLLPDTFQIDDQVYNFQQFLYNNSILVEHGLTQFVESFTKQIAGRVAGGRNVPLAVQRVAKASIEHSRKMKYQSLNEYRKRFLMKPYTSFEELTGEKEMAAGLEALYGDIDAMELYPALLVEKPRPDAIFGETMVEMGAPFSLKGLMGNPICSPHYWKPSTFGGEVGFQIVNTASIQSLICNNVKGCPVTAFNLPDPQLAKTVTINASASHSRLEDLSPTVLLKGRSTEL", "settings": "guinea pig macrophage model; Engelhart et al. 1995; cited from earlier work"}, "[6]": {"tested_on": "CD3+ T cells from MAIDS and control mice", "assay": "TCR/CD3 stimulated proliferation of isolated T cells, [3H]-thymidine incorporation", "assay_type": "cell-based, mouse", "method": "TCR/CD3 stimulated T cell proliferation was assessed with isolated T cells from MAIDS mice (A) and uninfected control mice (B). The effect of increasing concentrations of cAMP agonist (8-CPT-cAMP) on TCR/CD3 stimulated proliferation of CD3+ T cells isolated from MAIDS (open circles, dotted line) and control mice (filled circles and solid line) was examined separately in the same experiments (C). Mean values of triplicate determinations±SD are shown. See Table 4 for summarised data (n=11). Note: Scaling differs in A and B, whereas in C the TCR/CD3 induced proliferation in the absence of cAMP agonist is normalized to 100% for both MAIDS and control T cells;\nActivation was achieved by subsequent addition of monodisperse magnetic beads coated with sheep anti-mouse IgG (Dynal, cat. no. 110.02) at a cell:bead ratio of 1:1 followed by addition of anti-CD3 (clone 2C11) at a final dilution of 4 μg/ml for the experiments shown. […] 8-CPT-cAMP was from Sigma (St. Louis, Mo.) and Sp- and Rp-8-Br-cAMPS were from BioLog Life Science Company (Bremen, Germany) and were all dissolved to concentrations of 4 to 10 mM in PBS and concentrations calculated using the extinction coefficients given by the manufacturer."}, "[7]": {"tested_on": "CD3+ T cells from HIV infected patients", "assay": "proliferation of HIV patient CD3+ T cells with cAMP antagonist added in vitro", "assay_type": "cell-based, human", "text": "Bars show mean values±SD from triplicate determinations.\n8-CPT-cAMP was from Sigma (St. Louis, Mo.)."}}, "note": "Several values for one entry are separate records, joined by “and”; a condition that tells them apart may be missing. Equal entries are not always repeated. Where two headings read alike, the source gives them in different places."}
{"compound": "CS(=O)(=O)Nc1cc2c(cc1Sc1ccc(F)cc1F)C(=O)CC2", "note": "[L-745337]", "values": [{"measurement": "Ratio COX-2/WHMA-COX-1 at IC80", "setting": "COX-2 [1]; WHMA test, Warner et al.", "value": "<0.01"}]}
{"compound": "CS(=O)(=O)Nc1ccc([N+](=O)[O-])cc1Oc1ccccc1", "note": "[nimesulide]", "values": [{"measurement": "Ratio COX-2/WHMA-COX-1 at IC80", "setting": "COX-2 [1]", "value": 0.17}]}
{"compound": "Cc1cnc(NC(=O)C2=C(O)c3ccccc3S(=O)(=O)N2C)s1", "note": "[Meloxicam, 4-hydroxy-2-methyl-N-(5-methyl-2-thiazolyl)-1,1-dioxide-2H-1,2-benzothiazine-3-carboxamide]", "values": [{"measurement": "increase of T cell immune responses to anti-CD3 versus PBS-treated infected mice", "setting": "MAIDS mice [2]; 2.8 mg/kg/day, subcutaneous osmotic pump, 14 days, p<0.05", "value": "more than 10 fold"}, {"measurement": "IC50", "setting": "COX-1", "value": 0.00577, "unit": "µM"}]}
{"compound": "Cc1ccc(-c2cc(C(F)(F)F)nn2-c2ccc(S(N)(=O)=O)cc2)cc1", "note": "[celecoxib, 4-(5-(4-methylphenyl)-3-(trifluoromethyl)-1H-pyrazol-1-yl)-benzenesulfonamide]", "values": [{"measurement": "EC50", "setting": "[3]; Mus musculus, T-cell, read-out: concentration producing half-maximal effect (ED50) on T cell proliferation", "value": "~0.03", "unit": "µM"}, {"measurement": "increase of T cell responses to anti-CD3 versus untreated mice", "setting": "MAIDS mice [2]", "value": "approximately 3 fold"}]}
{"compound": "CS(=O)(=O)c1ccc(C2=C(c3ccccc3)C(=O)OC2)cc1", "note": "[rofecoxib]", "values": [{"measurement": "increase of anti-CD3 induced proliferation", "setting": "[3]; cells from MAIDS mice 17 weeks post-infection, concentration-dependent, 1.9 to 500 nM", "value": "two- to three-fold"}, {"measurement": "Rp-8-Br-cAMPS effect on anti-CD3 induced proliferation after in vivo treatment", "setting": "MAIDS mice [2]; MAIDS mice treated per os one week", "value": "lost"}, {"measurement": "increase of T cell responses to anti-CD3 versus untreated mice", "setting": "MAIDS mice [2]", "value": "approximately two-fold"}, {"measurement": "average spleen weight", "setting": "MAIDS mice [4]", "value": 0.8, "unit": "g"}, {"measurement": "average weight of pooled lymph nodes", "setting": "MAIDS mice [4]", "value": 0.3, "unit": "g"}]}
{"compound": "CN1C(C(=O)Nc2ccccn2)=C(O)c2sccc2S1(=O)=O", "note": "[Tenoxicam]", "values": [{"measurement": "IC50", "setting": "COX-2 [5]", "value": 0.322, "unit": "µM"}, {"measurement": "IC50", "setting": "COX-1", "value": 0.201, "unit": "µM"}]}
{"compound": "Nc1ncnc2c1nc(Br)n2C1OC2COP(O)(=S)OC2C1O", "note": "(stereo not drawn) [Rp-8-Br-cAMPS, Rp-8-Bromo-cAMP-phosphorothioate]", "values": [{"measurement": "increase in TCR/CD3-induced proliferation", "setting": "[6]; MAIDS T cells, higher concentrations, FIG. 5A", "value": "more than 4 fold"}, {"measurement": "Increase in proliferation by Rp-8-Br-cAMPS", "setting": "[6]; MAIDS mice, median, n = 11", "value": 2.2, "unit": "fold increase"}, {"measurement": "effect on TCR/CD3-induced proliferation", "setting": "[6]; control T cells, FIG. 5B", "value": "no stimulation was observed"}, {"measurement": "Increase in proliferation by Rp-8-Br-cAMPS", "setting": "[6]; control mice, median, n = 6", "value": 1.1, "unit": "fold increase"}, {"measurement": "Increase in proliferation by Rp-8-Br-cAMPS", "setting": "[6]; individual MAIDS mice 1-11, anti-CD3 induced proliferation", "value": "14 fold increase and 37 fold increase (3×) and 10 fold increase and 19 fold increase (2×) and 22 fold increase and 42 fold increase and 40 fold increase and 24 fold increase"}, {"measurement": "effect on anti-CD3 stimulated mixed lymph node cultures", "setting": "[3]; MAIDS mice that received PBS in vivo, 0.5 mM", "value": "increased immune responses"}, {"measurement": "effect on proliferation by antagonist in vitro", "setting": "[7]; patient 2, 1 mM", "value": "no effect"}, {"measurement": "increase in proliferation by antagonist in vitro", "setting": "[7]; patients 1 and 3, all time points, 1 mM", "value": "approx. 2 fold"}]}
